US20260097091A1, “ADMINISTRATION OF GLUTATHIONE TRISULFIDE TO AMELIORATE PERIPHERAL NEUROPATHY” (The General Hospital Corporation, priority 2022, published 2026)

How the values were obtained:
[1] = stability of PTN-SSS in solution; format: physicochemical; details: pH 4.0-9.0 at room temperature
Excerpt: (§1) PTN-SSS was synthesized and provided by Kyowa Hakko Bio Co., Ltd. The purity of PTN-SSS is 96.3%, and PTN-SSS is highly water soluble (>50 g/L). PTN-SSS and PTN (Toronto Research Chemicals, Toronto, ON, Canada) were suspended in distilled water. PTN-SSS is stable in solution at pH 4.0-9.0 at room temperature for at least 4 days. In the PTN-SSS study, distilled water was used as the vehicle alone.

[2] = water solubility of PTN-SSS; format: physicochemical
Excerpt: as §1

primary DRG neurons = primary DRG neurons exposed to paclitaxel: Sholl analysis and axonal mitochondria (NF200, MitoTracker); format: cell-based, mice; details: 500 nM PTNSSS with 100 nM paclitaxel for one hour
Procedure: Primary DRG neurons were prepared from 8 to 10-week old mice as described previously. Briefly, lumber DRG (L1 to L6) were isolated from mice and centrifuged at 176×g (1000 rpm) for 3 minutes. After aspirating the solution, DRG were incubated with Dispase-II Solution (Sigma-Aldrich, Cat No. SCM133) and collagenase type II (Worthington, Cat No. LS004176) for 70 minutes and with 0.25% trypsin for 5 minutes. Subsequently triturated by frame polished glass pipet, neurons were seeded on a 12-well plate with 15 mm coverslip. Cells were incubated in Neurobasal A-medium with 2% B27 supplement (Gibco, Cat No. 10889038), 1% penicillin/streptomycin, 1% Glutamax (Gibco, Cat No. 35050061), and nerve growth factor (Sigma Aldrich, Cat No. N6009) for 24 hours. After 24 hours, they were exposed to 100 nM of paclitaxel with or without 500 nM of GSSSG or PTNSSS for one hour and 50 nM of MitoTracker (Invitrogen, Cat No. M22426) for 30 minutes. After fixing by 4% paraformaldehyde for 10 minutes at room temperature, cells were immersed in 0.2% Triton X-100 in PBS for 7 minutes and washed by PBS. They were incubated with anti-NF200 antibody (1:400, mouse, Sigma-Aldrich, Cat No. N0142) overnight at 4° C. and with the secondary antibody (1:1000, donkey anti-mouse, Abcam, Cat No. ab150105) for one hour at room temperature. After being covered with fluoroshield mounting medium with DAPI (Sigma-Aldrich, Cat No. F6057), 9-10 cells per group (3 mice per group) were imaged on confocal microscopy (ZEISS LSM 800, Carl Zeiss, Thornwood, NY) using a 63× oil immersion objectives lens with 1,024×1,024 pixels image size.
Effects of PTNSSS and GSSSG on axonal integrity were examined in cultured murine primary DRG neurons incubated with paclitaxel. […] Morphology of neurons, the number, length, and branching of neurites, was analyzed by Sholl analysis implemented in ImageJ [30]. Sholl analysis draws equally spaced circles from the soma and counts the number of intersections between neurites and circles to quantify neuronal morphology (FIG. 8C).

[3] = tissue distribution of orally administered ^34S-labeled GSSSG by LC-MS/MS; format: in vivo, mice; details: 2 hours after oral 50 mg/kg
Procedure: To determine the tissue distribution of orally-administered GSSSG, ^34S-labelled GSSSG was administered by gavage to each of four mice. ^34S-labelled GSSSG was synthesized and provided by Kyowa Hakko Bio CO., LTD. Two hours after a single dose of ^34S-GSSSG, DRG, lumber spinal cord, brain, liver, and plasma were obtained and snap frozen for later analysis.
We examined whether administrated GSSSG via oral gavage reaches peripheral nervous system using liquid chromatography with tandem mass spectrometry (LC-MS/MS). Fifty mg/kg of ^34S-labeled GSSSG (in which the middle sulfur, that is a sulfane sulfur, was replaced to ^34S; G-^32S-^34S-^32S-G) was orally administered to mice. Two hours after administration, plasma and tissue from liver, brain, lumbar spinal cord, and lumbar DRG (L1 to L6) were collected and immediately frozen at −80° C. Tissues were homogenized with 5 mM of β-(4-hydroxyphenyl)ethyl iodoacetamide (HPE-IAM) (Santa Cruz, Cat No. SC-473766) and incubated for 20 minutes at 37° C. to promote HPE-IAM reaction that stabilizes persulfide residues. Proteins were removed by centrifugation at 15,000 g for 10 minutes at 4° C., and total protein concentration was measured by BCA assay. The supernatant was diluted by 0.1% formic acid for LC-MS/MS analysis. The amount of ^34S-labeled GSSSG was quantified in selective reaction monitoring (SRM) with precursor ion (647.14 m/z), product ion (389.1 m/z), and HCD (21 v) and normalized by protein concentration. The ratio of ^34S-labeled reactive sulfur species to endogenous (^32S) reactive sulfur species (GSSH, CysSSH, and CysSSSCys) were also calculated from their peak area measured by Dionex UltiMate 3000 RS UPLC-Orbitrap Exploris 480 mass spectrometer (Thermo Scientific Scientific, Waltham, MA, USA). In brief, samples were subjected to the UPLC system with a Hypersil Gold C-18 (100×2.1 mm, 3.0 μm, Thermo Fisher Scientific) column and they were eluted by using a linear methanol gradient of the mobile phase (0-90%, 15 minutes) in the presence of 0.1% formic acid at a flow rate of 0.2 ml/minutes at 40 degrees. The raw data were obtained by Compound Discoverer software 3.3. Molecular weight of reactive sulfur species combined with HPE-IAM were reported in previous studies.

Row | stable in solution [1] | water solubility [2] [mg/mL] | ratio of ^34S-labelled CysSSH to endogenous CysSSH ([3]; all 4 tissues) | ratio of ^34S-labelled CysSSSCys to endogenous CysSSSCys ([3]; all 4 tissues) | ratio of ^34S-labelled GSSH to endogenous GSSH ([3]; all 4 tissues (lumber DRG, lumber spinal cord, brain, liver)) | average concentration of ^34S-labelled GSSSG in brain ([3]; mice) [pmol/mg protein] | average concentration of ^34S-labelled GSSSG in liver ([3]; mice) [pmol/mg protein] | average concentration of ^34S-labelled GSSSG in lumber DRG ([3]; mice) [pmol/mg protein] | average concentration of ^34S-labelled GSSSG in lumber spinal cord ([3]; mice) [pmol/mg protein] | Compound | axonal length (Sholl analysis) (primary DRG neurons)
1 | at least 4 days | > 50 |  |  |  |  |  |  |  | CC(C)(CO)[C@@H](O)C(=O)NCCC(=O)NCCSSSCCNC(=O)CCNC(=O)[C@H](O)C(C)(C)CO [PTN-SSS, pantethine trisulfide] | prevented the axonal shortening induced by paclitaxel
2 |  |  | more than 10 fold | more than 10 fold | more than 10 fold | 142 | 158 | 415 | 518 | N[C@@H](CCC(=O)N[C@@H](CS[34S]SC[C@H](NC(=O)CC[C@H](N)C(=O)O)C(=O)NCC(=O)O)C(=O)NCC(=O)O)C(=O)O [^34S-labelled GSSSG] | 
